Laboratory results published in patent US20200032271A1, “COMBINATION THERAPY WITH LIPOSOMAL ANTISENSE OLIGONUCLEOTIDES” (Bio-Path Holdings, Inc., priority 2016, published 2020).
“And” between values parts separate entries of the source, which are not always exact repeats. Identical values can stand only once. Marks after values point to notes of the source that are not given here. [PEt] = P-ethoxy (ethyl phosphotriester) internucleoside linkage

Assay: Adverse events in study 2003-0578 (NCI CTCAE grading)
[1] = patient 1, 5 mg/m^2 monotherapy
[2] = patient 10, 5 mg/m^2 monotherapy

## BP1001: liposome-incorporated P-ethoxy antisense oligodeoxynucleotide (5′-ATATTTGGCGATGGCTTC-3′, SEQ ID NO: 1) specific to grb2 mRNA, in neutral DOPC liposomes (DNA, all [PEt], methylation of C not given here; incorporated in neutral DOPC liposomes)
Monotherapy 10 mg/m^2 (n = 6)
  Hypovolemia ≥Grade 3, number of patients: 0
  Hypoxia ≥Grade 3, number of patients: 1
  Investigations ≥Grade 3, number of patients: 0
  Leukocytosis ≥Grade 3, number of patients: 2
  Metabolism and nutritional disorders ≥Grade 3, number of patients: 3
  Multi-organ failure ≥Grade 3, number of patients: 1
  Neoplasms benign, malignant, and unspecified (incl. cysts and polyps) ≥Grade 3, number of patients: 1
  Patients with AEs ≥Grade 3, number of patients: 4
  Penile Pain ≥Grade 3, number of patients: 0
  Platelet count decreased ≥Grade 3, number of patients: 0
  Pneumonia ≥Grade 3, number of patients: 2
  Psychiatric disorders ≥Grade 3, number of patients: 0
  Renal and urinary disorders ≥Grade 3, number of patients: 0
  Reproductive system and breast disorders ≥Grade 3, number of patients: 0
  Respiratory distress ≥Grade 3, number of patients: 2
  Respiratory failure ≥Grade 3, number of patients: 1
  Respiratory, thoracic, and mediastinal disorders ≥Grade 3, number of patients: 3
  Tumor lysis syndrome ≥Grade 3, number of patients: 0
  Vascular disorders ≥Grade 3, number of patients: 0
Monotherapy 20 mg/m^2 (n = 3)
  AML progression, number of patients: 1
  Abdominal Pain ≥Grade 3, number of patients: 0
  Acidosis ≥Grade 3, number of patients: 0
  Acute kidney injury ≥Grade 3, number of patients: 0
  Asthenia ≥Grade 3, number of patients: 0
  Back Pain ≥Grade 3, number of patients: 0
  Blood and lymphatic system disorders ≥Grade 3, number of patients: 1
  Cardiac disorders ≥Grade 3, number of patients: 0
  Cataract ≥Grade 3, number of patients: 0
  Dyspnea ≥Grade 3, number of patients: 0
  Extremity Lower Edema ≥Grade 3, number of patients: 0
  Eye disorders ≥Grade 3, number of patients: 0
  Febrile neutropenia ≥Grade 3, number of patients: 0
  Gastrointestinal disorders ≥Grade 3, number of patients: 0
  General disorders and administration site conditions ≥Grade 3, number of patients: 0
  Hallucinations ≥Grade 3, number of patients: 0
  Heart failure ≥Grade 3, number of patients: 0
  Hepatic failure ≥Grade 3, number of patients: 0
  Hepatobiliary disorders ≥Grade 3, number of patients: 0
  Hypocalcemia ≥Grade 3, number of patients: 0
  Hypoglycemia ≥Grade 3, number of patients: 0
  Hypokalemia ≥Grade 3, number of patients: 0
  Hyponatremia ≥Grade 3, number of patients: 0
  Hypotension ≥Grade 3, number of patients: 0
  Hypovolemia ≥Grade 3, number of patients: 0
  Hypoxia ≥Grade 3, number of patients: 0
  Investigations ≥Grade 3, number of patients: 0
  Leukocytosis ≥Grade 3, number of patients: 1
  Metabolism and nutritional disorders ≥Grade 3, number of patients: 0
  Multi-organ failure ≥Grade 3, number of patients: 0
  Musculoskeletal and connective tissue disorders ≥Grade 3, number of patients: 0
  Neoplasms benign, malignant, and unspecified (incl. cysts and polyps) ≥Grade 3, number of patients: 0
  Patients with AEs ≥Grade 3, number of patients: 1
  Penile Pain ≥Grade 3, number of patients: 0
  Platelet count decreased ≥Grade 3, number of patients: 0
  Pneumonia ≥Grade 3, number of patients: 0
  Psychiatric disorders ≥Grade 3, number of patients: 0
  Renal and urinary disorders ≥Grade 3, number of patients: 0
  Reproductive system and breast disorders ≥Grade 3, number of patients: 0
  Respiratory distress ≥Grade 3, number of patients: 0
  Respiratory failure ≥Grade 3, number of patients: 0
  Respiratory, thoracic, and mediastinal disorders ≥Grade 3, number of patients: 0
  Tumor lysis syndrome ≥Grade 3, number of patients: 0
  Vascular disorders ≥Grade 3, number of patients: 0
Monotherapy 40 mg/m^2 (n = 3)
  AML progression, number of patients: 3
  Abdominal Pain ≥Grade 3, number of patients: 0
  Acidosis ≥Grade 3, number of patients: 0
  Acute kidney injury ≥Grade 3, number of patients: 1
  Asthenia ≥Grade 3, number of patients: 0
  Back Pain ≥Grade 3, number of patients: 0
  Blood and lymphatic system disorders ≥Grade 3, number of patients: 1
  Cardiac disorders ≥Grade 3, number of patients: 0
  Cataract ≥Grade 3, number of patients: 0
  Dyspnea ≥Grade 3, number of patients: 1
  Extremity Lower Edema ≥Grade 3, number of patients: 0
  Eye disorders ≥Grade 3, number of patients: 0
  Febrile neutropenia ≥Grade 3, number of patients: 0
  Gastrointestinal disorders ≥Grade 3, number of patients: 0
  General disorders and administration site conditions ≥Grade 3, number of patients: 0
  Hallucinations ≥Grade 3, number of patients: 0
  Heart failure ≥Grade 3, number of patients: 0
  Hepatic failure ≥Grade 3, number of patients: 0
  Hepatobiliary disorders ≥Grade 3, number of patients: 0
  Hypocalcemia ≥Grade 3, number of patients: 0
  Hypoglycemia ≥Grade 3, number of patients: 0
  Hypokalemia ≥Grade 3, number of patients: 1
  Hyponatremia ≥Grade 3, number of patients: 0
  Hypotension ≥Grade 3, number of patients: 0
  Hypovolemia ≥Grade 3, number of patients: 0
  Hypoxia ≥Grade 3, number of patients: 0
  Investigations ≥Grade 3, number of patients: 0
  Leukocytosis ≥Grade 3, number of patients: 1
  Metabolism and nutritional disorders ≥Grade 3, number of patients: 1
  Multi-organ failure ≥Grade 3, number of patients: 0
  Musculoskeletal and connective tissue disorders ≥Grade 3, number of patients: 0
  Neoplasms benign, malignant, and unspecified (incl. cysts and polyps) ≥Grade 3, number of patients: 0
  Patients with AEs ≥Grade 3, number of patients: 3
  Penile Pain ≥Grade 3, number of patients: 0
  Platelet count decreased ≥Grade 3, number of patients: 0
  Pneumonia ≥Grade 3, number of patients: 0
  Psychiatric disorders ≥Grade 3, number of patients: 0
  Renal and urinary disorders ≥Grade 3, number of patients: 1
  Reproductive system and breast disorders ≥Grade 3, number of patients: 0
  Respiratory distress ≥Grade 3, number of patients: 0
  Respiratory failure ≥Grade 3, number of patients: 0
  Respiratory, thoracic, and mediastinal disorders ≥Grade 3, number of patients: 1
  Tumor lysis syndrome ≥Grade 3, number of patients: 0
  Vascular disorders ≥Grade 3, number of patients: 0
Monotherapy 60 mg/m^2 (n = 3)
  AML progression, number of patients: 3
  Abdominal Pain ≥Grade 3, number of patients: 0
  Acidosis ≥Grade 3, number of patients: 0
  Acute kidney injury ≥Grade 3, number of patients: 0
  Asthenia ≥Grade 3, number of patients: 0
  Back Pain ≥Grade 3, number of patients: 0
  Blood and lymphatic system disorders ≥Grade 3, number of patients: 0
  Cardiac disorders ≥Grade 3, number of patients: 0
  Cataract ≥Grade 3, number of patients: 0
  Dyspnea ≥Grade 3, number of patients: 0
  Extremity Lower Edema ≥Grade 3, number of patients: 0
  Eye disorders ≥Grade 3, number of patients: 0
  Febrile neutropenia ≥Grade 3, number of patients: 0
  Gastrointestinal disorders ≥Grade 3, number of patients: 0
  General disorders and administration site conditions ≥Grade 3, number of patients: 0
  Hallucinations ≥Grade 3, number of patients: 0
  Heart failure ≥Grade 3, number of patients: 0
  Hepatic failure ≥Grade 3, number of patients: 0
  Hepatobiliary disorders ≥Grade 3, number of patients: 0
  Hypocalcemia ≥Grade 3, number of patients: 0
  Hypoglycemia ≥Grade 3, number of patients: 0
  Hypokalemia ≥Grade 3, number of patients: 0
  Hyponatremia ≥Grade 3, number of patients: 0
  Hypotension ≥Grade 3, number of patients: 0
  Hypovolemia ≥Grade 3, number of patients: 0
  Hypoxia ≥Grade 3, number of patients: 0
  Investigations ≥Grade 3, number of patients: 0
  Leukocytosis ≥Grade 3, number of patients: 0
  Metabolism and nutritional disorders ≥Grade 3, number of patients: 0
  Multi-organ failure ≥Grade 3, number of patients: 0
  Musculoskeletal and connective tissue disorders ≥Grade 3, number of patients: 0
  Neoplasms benign, malignant, and unspecified (incl. cysts and polyps) ≥Grade 3, number of patients: 1
  Patients with AEs ≥Grade 3, number of patients: 1
  Penile Pain ≥Grade 3, number of patients: 0
  Platelet count decreased ≥Grade 3, number of patients: 0
  Pneumonia ≥Grade 3, number of patients: 0
  Psychiatric disorders ≥Grade 3, number of patients: 0
  Renal and urinary disorders ≥Grade 3, number of patients: 0
  Reproductive system and breast disorders ≥Grade 3, number of patients: 0
  Respiratory distress ≥Grade 3, number of patients: 0
  Respiratory failure ≥Grade 3, number of patients: 0
  Respiratory, thoracic, and mediastinal disorders ≥Grade 3, number of patients: 0
  Tumor lysis syndrome ≥Grade 3, number of patients: 0
  Vascular disorders ≥Grade 3, number of patients: 0
Monotherapy 90 mg/m^2 (n = 4)
  AML progression, number of patients: 2
  Abdominal Pain ≥Grade 3, number of patients: 0
  Acidosis ≥Grade 3, number of patients: 0
  Acute kidney injury ≥Grade 3, number of patients: 0
  Asthenia ≥Grade 3, number of patients: 1
  Back Pain ≥Grade 3, number of patients: 0
  Blood and lymphatic system disorders ≥Grade 3, number of patients: 1
  Cardiac disorders ≥Grade 3, number of patients: 0
  Cataract ≥Grade 3, number of patients: 0
  Dyspnea ≥Grade 3, number of patients: 1
  Extremity Lower Edema ≥Grade 3, number of patients: 0
  Eye disorders ≥Grade 3, number of patients: 0
  Febrile neutropenia ≥Grade 3, number of patients: 0
  Gastrointestinal disorders ≥Grade 3, number of patients: 0
  General disorders and administration site conditions ≥Grade 3, number of patients: 1
  Hallucinations ≥Grade 3, number of patients: 0
  Heart failure ≥Grade 3, number of patients: 0
  Hepatic failure ≥Grade 3, number of patients: 0
  Hepatobiliary disorders ≥Grade 3, number of patients: 0
  Hypocalcemia ≥Grade 3, number of patients: 1
  Hypoglycemia ≥Grade 3, number of patients: 0
  Hypokalemia ≥Grade 3, number of patients: 1
  Hyponatremia ≥Grade 3, number of patients: 1
  Hypotension ≥Grade 3, number of patients: 0
  Hypovolemia ≥Grade 3, number of patients: 0
  Hypoxia ≥Grade 3, number of patients: 0
  Investigations ≥Grade 3, number of patients: 1
  Leukocytosis ≥Grade 3, number of patients: 1
  Metabolism and nutritional disorders ≥Grade 3, number of patients: 3
  Multi-organ failure ≥Grade 3, number of patients: 0
  Musculoskeletal and connective tissue disorders ≥Grade 3, number of patients: 0
  Neoplasms benign, malignant, and unspecified (incl. cysts and polyps) ≥Grade 3, number of patients: 0
  Patients with AEs ≥Grade 3, number of patients: 4
  Penile Pain ≥Grade 3, number of patients: 0
  Platelet count decreased ≥Grade 3, number of patients: 1^a
  Pneumonia ≥Grade 3, number of patients: 2
  Psychiatric disorders ≥Grade 3, number of patients: 0
  Renal and urinary disorders ≥Grade 3, number of patients: 0
  Reproductive system and breast disorders ≥Grade 3, number of patients: 0
  Respiratory distress ≥Grade 3, number of patients: 0
  Respiratory failure ≥Grade 3, number of patients: 0
  Respiratory, thoracic, and mediastinal disorders ≥Grade 3, number of patients: 1
  Tumor lysis syndrome ≥Grade 3, number of patients: 0
  Vascular disorders ≥Grade 3, number of patients: 0
[1]
  Dose-limiting Toxicity (DLT): Coagulopathy: No
  Dose-limiting Toxicity (DLT): Confusion: No
  Dose-limiting Toxicity (DLT): Diarrhea: No
  Dose-limiting Toxicity (DLT): Edema (limbs): No
  Dose-limiting Toxicity (DLT): Fever (pyrexia): No
  Dose-limiting Toxicity (DLT): Hyperkalemia: No
  Dose-limiting Toxicity (DLT): Hypocalcemia: No
  Dose-limiting Toxicity (DLT): Hypokalemia: No
  Dose-limiting Toxicity (DLT): Mucositis: No and Yes ^a
  Dose-limiting Toxicity (DLT): Multi-organ failure: No
  Dose-limiting Toxicity (DLT): Nausea: No
  Dose-limiting Toxicity (DLT): Pain: No
  Dose-limiting Toxicity (DLT): Pain in extremity: No
  Dose-limiting Toxicity (DLT): Palmar-plantar erythrodysesthesia (hand and foot) syndrome: Yes ^a
  Dose-limiting Toxicity (DLT): Pruritus: No
  Grade: Coagulopathy (related to study drug): 1
  Grade: Confusion: 1
  Grade: Diarrhea: 1
  Grade: Edema (limbs): 2
  Grade: Fever (pyrexia): 1
  Grade: Hyperkalemia: 2
  Grade: Hypokalemia: 3
  Grade: Mucositis: 2 and 4
  Grade: Multi-organ failure: 5
  Grade: Nausea: 2
  Grade: Pain: 2
  Grade: Pain in extremity: 2
  Grade: Palmar-plantar erythrodysesthesia (hand and foot) syndrome: 3
  Grade: Pruritus: 1
[2]
  Dose-limiting Toxicity (DLT): Blood creatinine increased: No
  Grade: Blood creatinine increased: 2
